In patent publication US12539264B2, “Composition comprising pentapeptide as active ingredient” (priority 2020, dated 2026):
No end group written: not given here.

Key:
SNARE complex = SNARE complex (Homo sapiens, UniProt Q16623); assay: Inhibition of SNARE complex formation in nerve cells (Western blot, syntaxin 1a antibody); assay type: cell-based
SH-SY5Y cells = assay: Intracellular penetration of rhodamine-pentapeptide conjugate (fluorescence microscopy); assay type: cell-based; conditions: rhodamine-peptide conjugate, 4 hours
Description: In order to confirm that the pentapeptide of the present invention penetrates into the nerve cells, SH-SY5Y cells were seeded in a 6-well plate at a density of 3×10^5 cells/well and cultured in a 37° C., 5% CO2 incubator for 24 hours, and then the medium was replaced with serum-free medium. After treatment with the rhodamine-peptide conjugate for 4 hours at each concentration, cells were fixed by treatment with 4% paraformaldehyde, and nuclei were stained using a DAPI staining kit (Invitrogen, USA). Intracellular peptide penetration was observed using a fluorescence microscope. Blue represents the nuclei of cells stained with DAPI, and red represents the ‘rhodamine-pentapeptide’ conjugate.

[1] = rat, in vivo

Chain of SNARE complex (Q16623 whole entry, one chain of several): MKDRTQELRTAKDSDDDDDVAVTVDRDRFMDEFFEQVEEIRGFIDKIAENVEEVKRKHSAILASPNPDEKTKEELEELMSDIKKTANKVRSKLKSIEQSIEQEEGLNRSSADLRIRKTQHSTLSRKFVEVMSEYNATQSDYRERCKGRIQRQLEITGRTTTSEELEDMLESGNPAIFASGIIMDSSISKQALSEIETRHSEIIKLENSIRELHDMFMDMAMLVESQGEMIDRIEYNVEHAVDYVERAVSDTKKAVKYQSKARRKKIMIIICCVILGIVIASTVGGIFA

| Substance | SNARE complex formation (SNARE complex) | penetration into nerve cells (SH-SY5Y cells) | penetration into skin tissue [1] |
| --- | --- | --- | --- |
| botulinum toxin | inhibited |  |  |
| KFLIK [pentapeptide, KFLIK] |  | penetrated into nerve cells | penetrated into the muscle layer of the skin tissue and co-localized with the nerve cell marker |
